Data from PubChem BioAssay (NCI).
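How tested: cells in 96-well plates exposed to compound for 48 hours at five concentrations. TGI marks complete inhibition of growth.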

Legend:
Experiment in all cases: inhibition of tumour cell growth, NCI panel, 48 h
A498 renal = test system: A498 renal
ACHN renal = test system: ACHN renal
CCRF-CEM leukemia = test system: CCRF-CEM leukemia
DMS 114 small cell lung = test system: DMS 114 small cell lung
DMS 273 small cell lung = test system: DMS 273 small cell lung
EKVX NSCLC = test system: EKVX NSCLC
HCT-116 colon = test system: HCT-116 colon
HL-60(TB) leukemia = test system: HL-60(TB) leukemia
HOP-62 NSCLC = test system: HOP-62 NSCLC
HOP-92 NSCLC = test system: HOP-92 NSCLC
HT29 colon = test system: HT29 colon
IGROV1 ovarian = test system: IGROV1 ovarian
KM12 colon = test system: KM12 colon
KM20L2 colon = test system: KM20L2 colon
M14 melanoma = test system: M14 melanoma
M19-MEL melanoma = test system: M19-MEL melanoma
MOLT-4 leukemia = test system: MOLT-4 leukemia
NCI-H226 lung = test system: NCI-H226 lung
NCI-H23 lung = test system: NCI-H23 lung
NCI-H460 lung = test system: NCI-H460 lung
NCI-H522 lung = test system: NCI-H522 lung
OVCAR-5 ovarian = test system: OVCAR-5 ovarian
OVCAR-8 ovarian = test system: OVCAR-8 ovarian
RXF 393 renal = test system: RXF 393 renal
SF-268 CNS = test system: SF-268 CNS
SF-295 CNS = test system: SF-295 CNS
SK-MEL-28 melanoma = test system: SK-MEL-28 melanoma
SK-OV-3 ovarian = test system: SK-OV-3 ovarian
SNB-19 CNS = test system: SNB-19 CNS
SNB-78 CNS = test system: SNB-78 CNS
SR leukemia = test system: SR leukemia
TK-10 renal = test system: TK-10 renal
U251 CNS = test system: U251 CNS
UACC-257 melanoma = test system: UACC-257 melanoma
UACC-62 melanoma = test system: UACC-62 melanoma
UO-31 renal = test system: UO-31 renal
A549 NSCLC = test system: A549 NSCLC
BT-549 breast = test system: BT-549 breast
CAKI-1 renal = test system: CAKI-1 renal
COLO 205 colon = test system: COLO 205 colon
DU-145 prostate = test system: DU-145 prostate
HCC-2998 colon = test system: HCC-2998 colon
HCT-15 colon = test system: HCT-15 colon
HS 578T breast = test system: HS 578T breast
K-562 leukemia = test system: K-562 leukemia
LOX IMVI melanoma = test system: LOX IMVI melanoma
MALME-3M melanoma = test system: MALME-3M melanoma
MCF7 breast = test system: MCF7 breast
MDA-MB-231 breast = test system: MDA-MB-231 breast
MDA-MB-435 = test system: MDA-MB-435
MDA-N = test system: MDA-N
NCI/ADR-RES ovarian = test system: NCI/ADR-RES ovarian
OVCAR-3 ovarian = test system: OVCAR-3 ovarian
OVCAR-4 ovarian = test system: OVCAR-4 ovarian
PC-3 prostate = test system: PC-3 prostate
RPMI-8226 leukemia = test system: RPMI-8226 leukemia
SF-539 CNS = test system: SF-539 CNS
SK-MEL-2 melanoma = test system: SK-MEL-2 melanoma
SK-MEL-5 melanoma = test system: SK-MEL-5 melanoma
SN12C renal = test system: SN12C renal
SNB-75 CNS = test system: SNB-75 CNS
SW-620 colon = test system: SW-620 colon
T-47D breast = test system: T-47D breast

In the case of NC(CCCC(N)P(=O)(O)O)C(=O)O (stereo not drawn), the TGI (A498 renal) is reported as > 100 µM, the TGI (ACHN renal) is reported as > 100 µM and the TGI (CCRF-CEM leukemia) is reported as > 100 µM. The TGI (DMS 114 small cell lung) was > 100 µM, the TGI (DMS 273 small cell lung) was > 100 µM and the TGI (EKVX NSCLC) was > 100 µM. The TGI (HCT-116 colon) was > 100 µM, the TGI (HL-60(TB) leukemia) was > 100 µM and the TGI (HOP-62 NSCLC) was > 100 µM. For the same molecule, the TGI (HOP-92 NSCLC) was > 100 µM, the TGI (HT29 colon) was > 100 µM and the TGI (IGROV1 ovarian) was > 100 µM. For the same molecule, the TGI (KM12 colon) was > 100 µM, the TGI (KM20L2 colon) was > 100 µM and the TGI (M14 melanoma) was > 100 µM. For the same molecule, the TGI (M19-MEL melanoma) was > 100 µM, the TGI (MOLT-4 leukemia) was > 100 µM and the TGI (NCI-H226 lung) was > 100 µM. The TGI (NCI-H23 lung) was > 100 µM, the TGI (NCI-H460 lung) was > 100 µM and the TGI (NCI-H522 lung) was > 100 µM. For the same molecule, the TGI (OVCAR-5 ovarian) was > 100 µM, the TGI (OVCAR-8 ovarian) was > 100 µM and the TGI (RXF 393 renal) was > 100 µM. The TGI (SF-268 CNS) was > 100 µM, the TGI (SF-295 CNS) was > 100 µM and the TGI (SK-MEL-28 melanoma) was > 100 µM. For the same molecule, the TGI (SK-OV-3 ovarian) was > 100 µM, the TGI (SNB-19 CNS) was > 100 µM and the TGI (SNB-78 CNS) was > 100 µM. The TGI (SR leukemia) was > 100 µM, the TGI (TK-10 renal) was > 100 µM and the TGI (U251 CNS) was > 100 µM. The TGI (UACC-257 melanoma) was > 100 µM, the TGI (UACC-62 melanoma) was > 100 µM and the TGI (UO-31 renal) was > 100 µM.
NC(Cc1ccc(OCc2ccccc2)cc1)C(=O)NC(Cc1ccccc1)C(=O)Oc1c(Cl)c(Cl)c(Cl)c(Cl)c1Cl (stereo not drawn) showed a TGI (A498 renal) of 37.9 µM, a TGI (A549 NSCLC) of 37.5 µM and a TGI (ACHN renal) of 30.5 µM. For the same molecule, the TGI (BT-549 breast) was 32.7 µM, the TGI (CAKI-1 renal) was 30.7 µM and the TGI (CCRF-CEM leukemia) was > 100 µM. For the same molecule, the TGI (COLO 205 colon) was 28.3 µM, the TGI (DU-145 prostate) was 27 µM and the TGI (EKVX NSCLC) was 41.6 µM. For the same molecule, the TGI (HCC-2998 colon) was 34 µM, the TGI (HCT-116 colon) was 31.3 µM and the TGI (HCT-15 colon) was 30.2 µM. The TGI (HL-60(TB) leukemia) was > 100 µM, the TGI (HOP-62 NSCLC) was 30.5 µM and the TGI (HOP-92 NSCLC) was 25.8 µM. The TGI (HS 578T breast) was 31 µM, the TGI (HT29 colon) was 32.1 µM and the TGI (IGROV1 ovarian) was 31.4 µM. For the same molecule, the TGI (K-562 leukemia) was > 100 µM, the TGI (KM12 colon) was 28.8 µM and the TGI (LOX IMVI melanoma) was 27.1 µM. It also gave a TGI (M14 melanoma) of 28.5 µM, a TGI (MALME-3M melanoma) of 35.3 µM and a TGI (MCF7 breast) of 36 µM. The TGI (MDA-MB-231 breast) was 25.7 µM, the TGI (MDA-MB-435) was 33.9 µM and the TGI (MDA-N) was 26.8 µM. For the same molecule, the TGI (MOLT-4 leukemia) was > 100 µM, the TGI (NCI-H226 lung) was 26.5 µM and the TGI (NCI-H23 lung) was 30.6 µM. The TGI (NCI-H460 lung) was 30.5 µM, the TGI (NCI-H522 lung) was 42.3 µM and the TGI (NCI/ADR-RES ovarian) was 40.7 µM. For the same molecule, the TGI (OVCAR-3 ovarian) was 28.9 µM, the TGI (OVCAR-4 ovarian) was 35.5 µM and the TGI (OVCAR-5 ovarian) was 31.1 µM. The TGI (OVCAR-8 ovarian) was 31.8 µM, the TGI (PC-3 prostate) was 32.4 µM and the TGI (RPMI-8226 leukemia) was > 100 µM. The TGI (RXF 393 renal) was 28.3 µM, the TGI (SF-268 CNS) was 38.9 µM and the TGI (SF-539 CNS) was 30.6 µM. It also gave a TGI (SK-MEL-2 melanoma) of 26.5 µM, a TGI (SK-MEL-28 melanoma) of 31.6 µM and a TGI (SK-MEL-5 melanoma) of 32.4 µM. The TGI (SK-OV-3 ovarian) was 28.9 µM, the TGI (SN12C renal) was 32 µM and the TGI (SNB-19 CNS) was 34 µM. For the same molecule, the TGI (SNB-75 CNS) was 29.6 µM, the TGI (SR leukemia) was > 100 µM and the TGI (SW-620 colon) was 31.7 µM. It also gave a TGI (T-47D breast) of 37.1 µM, a TGI (TK-10 renal) of 28.9 µM and a TGI (U251 CNS) of 31.2 µM. For the same molecule, the TGI (UACC-257 melanoma) was 32.8 µM, the TGI (UACC-62 melanoma) was 32.7 µM and the TGI (UO-31 renal) was 30.4 µM.
